Measured values as given in US20240415752A1, “A personal care composition comprising vitamin K2 and hydroxystearic acid” (Conopco, Inc., d/b/a UNILEVER, priority 2021, published 2024).

System: Normal human epidermal melanocytes (NHEM)
Test: Melanin inhibition rate in UVB-irradiated melanocytes
Type: cell-based
Conditions: for Melanin inhibition rate (% inhibition against UV): NHEM, UVB 14 mJ/cm^2 every 24 h, 72 hours treatment, active concentration (wt %) as in table, melanin normalized to relative cell viability; for Boost of efficacy of Vitamin K2 (melanin inhibition), in words: combination with Encap MK7 (0.0024%) in NHEM
Experimental: Effect of actives like 12HSA, 4-HR (4-hexyl resorcinol) and Encap MK7 (encapsulated Vitamin K2 of the MK-7 type) were tested individually and in combination. The protocol for the invitro assay is summarized below:
Normal human epidermal melanocytes (NHEM) (Biocell, Xi'an, China) were grown in melanocyte growth medium (MGM) with human melanocyte growth supplement (both from Promocell, Germany). NHEM cells were seeded at a density of 7×10^4 cells in 2 mL MGM/well in 6-well plates and incubated for 24 hours in an incubator at 37° C. with 5% CO2. When reaching 50% confluency, cells were irradiated with UVB at 14 mJ/cm^2 and after UV irradiation, media was replaced with fresh media containing test materials. Every 24 hours in the following 72 hours, the cells were irradiated with UVB again, and the treatment were refreshed.
At the end of the 72 hours incubation period, cell viability was determined using the Alamar Blue method. Briefly, cells were washed twice with phosphate buffered saline (PBS) solution. Freshly prepared 10% Alamar Blue working solution was added into each well including the blank control wells without cells. Plates were incubated for 1 hour at 37° C. in the CO2 incubator. The Alamar Blue solution was then transferred to a 96-well plate to check fluorescence intensity at Ex/Em 530 nm/590 nm using a fluorescent plate reader.
After cell viability evaluation, cells were further washed with PBS for twice and the cells were detached with 0.25% trypsin and collected with centrifugation. The cell pellet was added with a mixed solution (H2O:EtOH:Et2O=2:5:5 v/v) and the mixture was vortexed and left stand still for 30 min. Then the mixture was centrifuged at 1000 r/min for 10 min. The lower fraction was collected and further extracted with a solution containing 10% (v/v) DMSO and 1 M NaOH and incubated at 80° C. in a water bath for 40 minutes. Melanin standard solution was prepared in similarly by adding the same DMSO/NaOH mixed solution to the commercially sourced melanin and incubated at 80° C. for 40 minutes. The extracted melanin and the serially diluted melanin standard solution was then transferred to a 96-well plate and the absorbance at 405 nm was detected using a plate reader. The melanin content was calculated from the melanin standard curve. The melanin concentrations (μg/mL) were then normalized to the relative cell viability. The melanin inhibition rates were calculated using the following equation.

| Structure (SMILES) | Melanin inhibition rate (% inhibition against UV) | Boost of efficacy of Vitamin K2 (melanin inhibition), in words |
| --- | --- | --- |
| CCCCCCc1ccc(O)cc1O [C, 4-hexyl resorcinol] | 38.5% | does not do so |
| CCCCCCC(O)CCCCCCCCCCC(=O)O (stereo not shown) [A, 12-hydroxystearic acid] | 25.3% | able to boost efficacy of Vitamin K2 |
